Some results are limits rather than exact numbers.

As usually defined, the IC50 is the concentration at which inhibition is half-maximal. The low end stands for greater potency, the high end for weaker potency.

One data set relates to Plasmodium falciparum. As to the kind of experiment: In vitro antiprotozoal activity for Plasmodium falciparum K1. Format: functional, organism-based.
The subject of data set [1] is Trypanosoma brucei rhodesiense. As to the kind of experiment: In vitro antiprotozoal activity against Trypanosoma brucei rhodesiense strain STIB900. It counts as functional, organism-based.
Data set [2] has as its system Mus musculus. As to the kind of experiment: In vivo antitrypanosomal activity (100 mg/kg for 4 days, p.o.) measured as cured mice infected with Trypanosoma brucei rhodesiense strain STIB900; 0 cured out of 4.
Another data set deals with L6. As to the kind of experiment: In vitro cytotoxicity evaluated using cultured L6 rat myoblast cells. Particulars: read-out: TD50 (the source's name). Format: functional.
Another data set deals with Nucleic Acid. As to the kind of experiment: poly(d(A-T)2) binding affinity is measured as change in DNA melting temperature. It counts as nucleic-acid assay.
The test system of data set [3] is Mus musculus. The experiment in a line: In vivo antitrypanosomal activity (10 mg/kg for 4 days, i.p.) measured as survival days of mice infected with Trypanosoma brucei rhodesiense strain STIB900. It counts as functional.
The test system of data set [4] is Mus musculus. As to the kind of experiment: In vivo antitrypanosomal activity (10 mg/kg for 4 days, i.p.) measured as cured mice infected with Trypanosoma brucei rhodesiense strain STIB900; 2 cured out of 4. It counts as functional.
In data set [5] the test system is Mus musculus. The experiment in a line: In vivo antitrypanosomal activity (25 mg/kg for 4 days, p.o.) measured as cured mice infected with Trypanosoma brucei rhodesiense strain STIB900; 2 cured out of 4.
Data set [6] concerns Mus musculus. The experiment in a line: In vivo antitrypanosomal activity (100 mg/kg for 4 days, p.o.) measured as cured mice infected with Trypanosoma brucei rhodesiense strain STIB900; 0 cured out of 4. The source holds these as a separate data set.
Data set [7] has as its system Mus musculus. As to the kind of experiment: In vivo antitrypanosomal activity (100 mg/kg for 4 days, p.o.) measured as survival days of mice infected with Trypanosoma brucei rhodesiense strain STIB900.
The test system of data set [8] is Mus musculus. As to the kind of experiment: In vivo antitrypanosomal activity (20 mg/kg for 4 days, i.p.) measured as cured mice infected with Trypanosoma brucei rhodesiense strain STIB900; 3 cured out of 4. Format: functional.
The subject of data set [9] is Mus musculus. The experiment in a line: In vivo antitrypanosomal activity (20 mg/kg for 4 days, i.p.) measured as survival days of mice infected with Trypanosoma brucei rhodesiense strain STIB900. It counts as functional.
Data set [10] relates to Mus musculus. The experiment in a line: In vivo antitrypanosomal activity (20 mg/kg for 4 days, i.p.) measured as cured mice infected with Trypanosoma brucei rhodesiense strain STIB900; 0 cured out of 4. It counts as functional.

With `CCOC(=O)N/C(=N/C(C)C)Nc1ccc2c(c1)Cc1cc(N/C(=N\C(C)C)NC(=O)OCC)ccc1-2`, the IC50 was found to be 6.3 µM in the data set on Plasmodium falciparum and 2.5 µM in data set [1]. Further, the Cures in the data set on Mus musculus [2] was 0. The CC50 in the data set with L6 worked out at 94.2 µM.

On to `N=C(N)Nc1ccc2c(c1)C(=O)c1cc(NC(=N)N)ccc1-2`, for which, in the data set on Nucleic Acid, the “delta Tm” value amounted to 6.1 °C. Moreover, the IC50 in the data set on Plasmodium falciparum worked out at 0.268 µM; in data set [1] it was 0.0073 µM. The Survival in the data set on Mus musculus [3] was over 50.75 days. This compound also yielded a Cures in the data set with Mus musculus [4] of 2. The CC50 in the data set on L6 was 41.5 µM.

With `CC/N=C(/NC(=O)OCC)Nc1ccc2c(c1)Cc1cc(/N=C(/NCC)NC(=O)OCC)ccc1-2`, the IC50 came to 4.1 µM in the data set with Plasmodium falciparum and 8 µM in data set [1]. For the same compound, the CC50 with L6 was determined as 174 µM.

The compound `CCOC(=O)N/C(=N/C)Nc1ccc2c(c1)Cc1cc(N/C(=N\C)NC(=O)OCC)ccc1-2` yielded a Cures in the data set with Mus musculus [5] of 2. Further, the IC50 with Plasmodium falciparum was 10.3 µM; in [1], 2.9 µM. Further, the CC50 in the data set with L6 turned out to be 95.6 µM.

In the data set with Mus musculus [6], `CCOC(=O)NC(=N)Nc1ccc2c(c1)C(=O)c1cc(NC(=N)NC(=O)OCC)ccc1-2` had a Cures of 0. The IC50 amounted to 3.2 µM with Plasmodium falciparum and 12.9 µM in data set [1]. Besides, in the data set on L6, the CC50 is over 200 µM.

On to `CC/N=C(/N)Nc1ccc2c(c1)Cc1cc(N/C(N)=N\CC)ccc1-2`, for which, in the data set on Nucleic Acid, the “delta Tm” value is 10 °C. Also, the IC50 in the data set with Plasmodium falciparum was found to be 0.0133 µM; in data set [1] it was 0.0169 µM. Moreover, the CC50 in the data set with L6 came to 39.2 µM.

As for `N=C(Nc1ccc2c(c1)Cc1cc(NC(=N)c3ccccn3)ccc1-2)c1ccccn1`, in the data set on Nucleic Acid, the “delta Tm” value stood at 15.2 °C. Also, the IC50 in the data set on Plasmodium falciparum was 1.2 µM; in data set [1], 0.894 µM. In addition, in the data set with L6, the CC50 came to 98.7 µM.

`CC(C)CONC(=N)Nc1ccc2c(c1)Cc1cc(NC(=N)NOCC(C)C)ccc1-2` came in with a Survival in the data set on Mus musculus [7] of 6.75 days. The IC50 is 0.351 µM in the data set with Plasmodium falciparum and 21.2 µM in data set [1]. In addition, in the data set with Mus musculus [2], the Cures was determined as 0. In addition, the CC50 in the data set with L6 stood at 68.4 µM.

For the compound `C/N=C(/N)Nc1ccc2c(c1)Cc1cc(N/C(N)=N\C)ccc1-2`, the Cures in the data set on Mus musculus [8] is listed as 3. In the data set with Nucleic Acid, the “delta Tm” value was determined as 10.1 °C. Further, the IC50 is 0.01 µM with Plasmodium falciparum and 0.0126 µM in data set [1]. In the data set with Mus musculus [9], this compound showed a Survival of over 52 days. The CC50 in the data set on L6 worked out at 65.2 µM.

Compound `CONC(=N)Nc1ccc2c(c1)Cc1cc(NC(=N)NOC)ccc1-2` returned a Survival with Mus musculus [7] of 8 days. Besides, the results for the IC50 (in the data set with Plasmodium falciparum; in data set [1]) were 3 µM and 47.5 µM, respectively. In addition, the Cures in the data set on Mus musculus [2] is listed as 0. The CC50 with L6 is 137 µM.

In turn, `CCOC(=O)NC(=N)Nc1ccc2c(c1)Cc1cc(NC(=N)NC(=O)OCC)ccc1-2` gave a Survival with Mus musculus [7] of 18.75 days. Further, the IC50 is 3.7 µM in the data set with Plasmodium falciparum and 0.814 µM in data set [1]. Moreover, the Cures in the data set with Mus musculus [2] is given as 0. Further, the CC50 with L6 is over 201 µM.

With `N=C(N)Nc1ccc2c(c1)Cc1cc(NC(=N)N)ccc1-2`, the “delta Tm” value in the data set with Nucleic Acid worked out at 13.6 °C. In the data set on Mus musculus [10], this compound came in with a Cures of 0. In addition, the Survival in the data set with Mus musculus [9] is 6 days. Also, the CC50 with L6 was 4.7 µM.

For `CC(C)/N=C(/N)Nc1ccc2c(c1)Cc1cc(N/C(N)=N\C(C)C)ccc1-2`, the “delta Tm” value in the data set with Nucleic Acid stood at 9.3 °C. Besides, the values for the IC50 (in the data set on Plasmodium falciparum; in data set [1]) were 0.0357 µM and 0.0404 µM, respectively. For the same compound, the CC50 with L6 was 85.2 µM.

As to `N=C(N)Nc1ccc2c(c1)C(=O)c1cc(NC(=N)N)ccc1C2=O`, the “delta Tm” value in the data set with Nucleic Acid was 7.2 °C. In addition, the IC50 in the data set on Plasmodium falciparum is 30.2 µM; in data set [1], 0.128 µM. The CC50 in the data set with L6 was found to be 35.3 µM.

With `N=C(Nc1ccc2c(c1)Cc1cc(NC(=N)c3ccccc3)ccc1-2)c1ccccc1`, the “delta Tm” value in the data set with Nucleic Acid was 22 °C. Moreover, the IC50 in the data set with Plasmodium falciparum turned out to be 0.481 µM; in [1], 0.292 µM. Further, the CC50 in the data set with L6 was determined as 1.9 µM.

On to `N=C(N)c1ccc(-c2ccc(-c3ccc(C(=N)N)cc3)o2)cc1` [FURAMIDINE], for which, in the data set on Nucleic Acid, the “delta Tm” value came to 25 °C. The compound also showed a Cures with Mus musculus [10] of 0. This compound also had a Survival in the data set on Mus musculus [9] of 52.5 days. Also, the CC50 in the data set with L6 stood at 6.4 µM.

As for `N=C(N)c1ccc(OCCCCCOc2ccc(C(=N)N)cc2)cc1` [PENTAMIDINE], the “delta Tm” value with Nucleic Acid turned out to be 12.6 °C. The Cures in the data set with Mus musculus [10] is reported as 0. Further, the IC50 came out at 0.0346 µM in the data set with Plasmodium falciparum and 0.0023 µM in data set [1]. Also, the Survival in the data set on Mus musculus [9] worked out at 40.8 days. Besides, the CC50 in the data set with L6 is 1.5 µM.

Source of the values: ChEMBL document CHEMBL1144346, “Synthesis, DNA affinity, and antiprotozoal activity of fused ring dicationic compounds and their prodrugs” (J Med Chem, 2005).
